Assay results taken from article PMC11790660 (Frontiers in Chemistry, 2025).

Columns and labels:
[1] = H2S release, methylene blue (MB+) method; type: physicochemical; conditions: MB+ method with TECP or cysteine; different temperature and pH
[2] = system: HepG2 cell lines (liver tumor cell)
[3] = system: TNF-α levels in RAW264.7 cells; test: ELISA, LPS-mediated TNF-α in RAW264.7; type: cell-based, Mouse; conditions: LPS-induced RAW264.7, 24 h, vs control group
[4] = system: LO2 cell lines (normal liver cell); test: cells; conditions: Homo sapiens, L02, 24 h, read-out: IC50 LO2
PI3Kβ = PI3Kβ (Homo sapiens, UniProt P42338); test: In vitro PI3K enzyme inhibitory assay (ADP-Glo), PI3Kβ; type: biochemical; conditions: read-out: PI3Kβ % inhibition at 10 μM
Sequence of PI3Kβ (P42338 whole entry): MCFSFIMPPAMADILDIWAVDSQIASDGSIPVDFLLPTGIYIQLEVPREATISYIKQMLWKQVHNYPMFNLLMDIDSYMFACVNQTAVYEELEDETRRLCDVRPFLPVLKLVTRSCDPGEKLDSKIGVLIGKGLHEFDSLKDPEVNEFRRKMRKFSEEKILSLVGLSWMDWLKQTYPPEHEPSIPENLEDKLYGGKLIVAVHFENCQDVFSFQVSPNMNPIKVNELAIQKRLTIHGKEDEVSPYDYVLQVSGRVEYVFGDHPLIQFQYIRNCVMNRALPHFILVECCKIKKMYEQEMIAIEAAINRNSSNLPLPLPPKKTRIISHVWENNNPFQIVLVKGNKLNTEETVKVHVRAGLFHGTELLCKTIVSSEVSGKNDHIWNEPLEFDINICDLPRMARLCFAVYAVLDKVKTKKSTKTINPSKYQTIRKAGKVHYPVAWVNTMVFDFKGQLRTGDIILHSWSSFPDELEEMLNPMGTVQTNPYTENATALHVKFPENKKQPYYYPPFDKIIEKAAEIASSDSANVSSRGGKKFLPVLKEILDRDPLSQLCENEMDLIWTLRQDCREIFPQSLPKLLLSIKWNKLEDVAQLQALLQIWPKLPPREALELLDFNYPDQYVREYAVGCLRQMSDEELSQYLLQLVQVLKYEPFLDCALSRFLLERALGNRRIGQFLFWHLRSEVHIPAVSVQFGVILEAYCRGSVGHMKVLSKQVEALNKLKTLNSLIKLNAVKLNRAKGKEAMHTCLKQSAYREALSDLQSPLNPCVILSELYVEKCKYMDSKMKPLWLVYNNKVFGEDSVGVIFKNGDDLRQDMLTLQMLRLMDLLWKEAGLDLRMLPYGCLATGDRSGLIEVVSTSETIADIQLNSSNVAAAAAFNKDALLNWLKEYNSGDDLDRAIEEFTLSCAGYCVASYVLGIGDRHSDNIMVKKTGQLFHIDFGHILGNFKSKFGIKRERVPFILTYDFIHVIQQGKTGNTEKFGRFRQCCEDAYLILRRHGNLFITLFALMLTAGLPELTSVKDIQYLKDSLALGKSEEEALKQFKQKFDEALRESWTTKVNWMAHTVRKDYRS
Sequence of PI3Kβ (P27986 whole entry partner): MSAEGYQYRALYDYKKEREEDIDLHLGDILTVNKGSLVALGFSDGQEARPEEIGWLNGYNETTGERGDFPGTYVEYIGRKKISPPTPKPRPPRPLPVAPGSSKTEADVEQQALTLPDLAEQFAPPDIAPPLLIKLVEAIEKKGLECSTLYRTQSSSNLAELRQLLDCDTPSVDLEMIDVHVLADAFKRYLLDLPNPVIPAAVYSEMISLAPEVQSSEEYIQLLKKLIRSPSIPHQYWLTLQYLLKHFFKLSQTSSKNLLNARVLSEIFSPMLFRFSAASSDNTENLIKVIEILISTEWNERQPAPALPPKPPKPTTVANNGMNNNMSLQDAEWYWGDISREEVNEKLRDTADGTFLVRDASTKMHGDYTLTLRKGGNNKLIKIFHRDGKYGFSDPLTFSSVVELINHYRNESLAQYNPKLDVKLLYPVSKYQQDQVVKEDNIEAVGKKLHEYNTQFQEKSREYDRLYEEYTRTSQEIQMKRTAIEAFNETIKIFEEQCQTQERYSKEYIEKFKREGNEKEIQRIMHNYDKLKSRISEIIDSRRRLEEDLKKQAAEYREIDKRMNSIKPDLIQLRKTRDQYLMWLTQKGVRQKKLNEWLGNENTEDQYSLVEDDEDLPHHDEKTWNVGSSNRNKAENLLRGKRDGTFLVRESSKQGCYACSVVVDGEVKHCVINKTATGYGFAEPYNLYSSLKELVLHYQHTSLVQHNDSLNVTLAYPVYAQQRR

PI3Kα = PI3Kα (Homo sapiens, UniProt P42336); test: In vitro PI3K enzyme inhibitory assay (ADP-Glo), PI3Kα; type: biochemical; conditions: read-out: PI3Kα % inhibition at 10 μM
Sequence of PI3Kα (P42336 whole entry): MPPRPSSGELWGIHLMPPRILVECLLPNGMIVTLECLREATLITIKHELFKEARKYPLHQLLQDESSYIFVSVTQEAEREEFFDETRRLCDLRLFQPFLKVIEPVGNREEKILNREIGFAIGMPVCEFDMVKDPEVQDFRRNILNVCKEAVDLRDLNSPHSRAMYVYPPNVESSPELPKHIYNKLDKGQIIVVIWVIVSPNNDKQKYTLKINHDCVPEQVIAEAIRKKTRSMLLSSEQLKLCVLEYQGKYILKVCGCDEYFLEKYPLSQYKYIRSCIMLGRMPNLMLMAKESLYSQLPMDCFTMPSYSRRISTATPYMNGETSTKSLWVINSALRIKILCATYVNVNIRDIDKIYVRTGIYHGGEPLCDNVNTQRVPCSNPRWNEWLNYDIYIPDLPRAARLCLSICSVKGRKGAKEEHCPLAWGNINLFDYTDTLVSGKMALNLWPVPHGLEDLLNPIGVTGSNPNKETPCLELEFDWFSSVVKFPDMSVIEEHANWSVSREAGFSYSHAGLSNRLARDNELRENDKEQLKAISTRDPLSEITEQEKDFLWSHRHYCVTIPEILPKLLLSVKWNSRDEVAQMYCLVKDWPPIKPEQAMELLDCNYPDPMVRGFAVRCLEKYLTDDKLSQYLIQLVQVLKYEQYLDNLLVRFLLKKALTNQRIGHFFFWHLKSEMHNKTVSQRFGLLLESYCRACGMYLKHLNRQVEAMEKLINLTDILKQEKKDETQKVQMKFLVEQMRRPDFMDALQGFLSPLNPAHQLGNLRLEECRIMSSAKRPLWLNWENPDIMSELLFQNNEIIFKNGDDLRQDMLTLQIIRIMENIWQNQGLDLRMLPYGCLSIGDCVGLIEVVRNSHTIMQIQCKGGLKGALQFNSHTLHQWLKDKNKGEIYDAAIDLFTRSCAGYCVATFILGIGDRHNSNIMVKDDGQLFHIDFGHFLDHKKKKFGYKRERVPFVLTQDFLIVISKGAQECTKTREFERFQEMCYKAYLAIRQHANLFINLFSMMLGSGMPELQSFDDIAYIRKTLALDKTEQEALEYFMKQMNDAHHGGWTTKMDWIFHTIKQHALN
Sequence of PI3Kα (P27986 whole entry partner): as the sequence (P27986 whole entry partner) above

MCF-7 = test: cells; type: cell-based; conditions: Homo sapiens, MCF7, read-out: IC50 against cell proliferation, MCF-7
[5] = system: IL-10 level in RAW264.7 cells; test: ELISA, IL-10 in RAW264.7; type: cell-based, Mouse; conditions: RAW264.7, 24 h
[6] = system: HO-1 levels in RAW264.7 cells; test: ELISA, HO-1 in RAW264.7; type: cell-based, Mouse; conditions: RAW264.7, 24 h
[7] = system: nitrite production in RAW264.7 cells; test: Griess assay, LPS-induced nitrite production in RAW264.7; type: cell-based; conditions: Mus musculus, 24 h, 1 mg/mL LPS
Excerpt: Nitric oxide (NO) affects inflammation signaling pathways, regulating the intensity and timing of inflammatory responses, making it a crucial regulatory molecule in inflammation. LPS induces the production of nitric oxide (NO) by activating a series of signal transduction pathways. Upon NF-κB activation, transcription of the iNOS gene is promoted, leading to the synthesis of inducible nitric oxide synthase (iNOS). iNOS is an enzyme that produces large amounts of NO, activated under inflammatory conditions to release substantial nitric oxide ([Kumar, 2023]). In vivo, NO is easily oxidized by superoxide ions to generate nitrites. Studies have shown that H2S not only acts to scavenge peroxides but also undergoes chemical reactions with NO, forming novel nitrosylthiol compounds. We assess the anti-inflammatory activity of compounds by measuring nitrite production ([Somensi et al., 2019]).
The Griess assay is used to measure nitrite levels in biological samples, both in vivo and in vitro. See Supplementary Material for more details ([Kumar, 2023]).
The Griess assay is used to measure nitrite levels in biological samples, both in vivo and in vitro. […] The absorbance is measured at a wavelength of 540-550 nanometers, and the concentration of the red product is directly proportional to the absorbance. Nitrite concentrations can be calculated using a standard curve.

WI38 normal cells [8] = system: WI38 normal cells
AKT = test: In vitro AKT enzyme inhibitory assay; type: biochemical
[9] = system: HepG2 cell lines (liver tumor cell); test: cells; conditions: Homo sapiens, HepG2, 24 h, read-out: IC50 HepG2
[10] = system: RAW264.7 macrophage cells; test: CCK-8 cell viability, RAW264.7 macrophages; type: cell-based, Mouse; conditions: 24 h
Protocol: To obtain more accurate anti-inflammatory results and minimize the impact of cell death caused by the test compounds on the outcomes, we first evaluated the effects of the compounds on RAW264.7 macrophage viability. The cells were divided into two groups: one treated with […] LPS and the other untreated. Macrophages were exposed to compounds at concentrations of 10, 50, and 100 μM for 24 h, followed by cell viability measurement using the CCK-8 assay ([Huang et al., 2022]; [Flannigan and Wallace, 2015]; [Citi et al., 2020]; [Gemici and Wallace, 2015]). […] In the presence of LPS stimulation, a slight reduction of 11% cell activity was observed.
The CCK-8 assay is a commonly used method for assessing cell viability, based on cellular metabolic activity. […]
The CCK-8 assay is a commonly used method for assessing cell viability, based on cellular metabolic activity. […] The culture plate is then incubated in a suitable incubator for a defined period (usually 4 hours), followed by measuring the absorbance of each group's culture medium using a spectrophotometer, typically at a wavelength of 450 nanometers. Cell relative activity or viability is calculated based on absorbance values, often by subtracting the background absorbance from the control group's values and normalizing to the control group's values to obtain relative activity or viability.

PI3Kγ = PI3Kγ (Homo sapiens, UniProt P48736); test: In vitro PI3K enzyme inhibitory assay (ADP-Glo), PI3Kγ; type: biochemical; conditions: read-out: PI3Kγ % inhibition at 10 μM
Sequence of PI3Kγ (P48736 whole entry): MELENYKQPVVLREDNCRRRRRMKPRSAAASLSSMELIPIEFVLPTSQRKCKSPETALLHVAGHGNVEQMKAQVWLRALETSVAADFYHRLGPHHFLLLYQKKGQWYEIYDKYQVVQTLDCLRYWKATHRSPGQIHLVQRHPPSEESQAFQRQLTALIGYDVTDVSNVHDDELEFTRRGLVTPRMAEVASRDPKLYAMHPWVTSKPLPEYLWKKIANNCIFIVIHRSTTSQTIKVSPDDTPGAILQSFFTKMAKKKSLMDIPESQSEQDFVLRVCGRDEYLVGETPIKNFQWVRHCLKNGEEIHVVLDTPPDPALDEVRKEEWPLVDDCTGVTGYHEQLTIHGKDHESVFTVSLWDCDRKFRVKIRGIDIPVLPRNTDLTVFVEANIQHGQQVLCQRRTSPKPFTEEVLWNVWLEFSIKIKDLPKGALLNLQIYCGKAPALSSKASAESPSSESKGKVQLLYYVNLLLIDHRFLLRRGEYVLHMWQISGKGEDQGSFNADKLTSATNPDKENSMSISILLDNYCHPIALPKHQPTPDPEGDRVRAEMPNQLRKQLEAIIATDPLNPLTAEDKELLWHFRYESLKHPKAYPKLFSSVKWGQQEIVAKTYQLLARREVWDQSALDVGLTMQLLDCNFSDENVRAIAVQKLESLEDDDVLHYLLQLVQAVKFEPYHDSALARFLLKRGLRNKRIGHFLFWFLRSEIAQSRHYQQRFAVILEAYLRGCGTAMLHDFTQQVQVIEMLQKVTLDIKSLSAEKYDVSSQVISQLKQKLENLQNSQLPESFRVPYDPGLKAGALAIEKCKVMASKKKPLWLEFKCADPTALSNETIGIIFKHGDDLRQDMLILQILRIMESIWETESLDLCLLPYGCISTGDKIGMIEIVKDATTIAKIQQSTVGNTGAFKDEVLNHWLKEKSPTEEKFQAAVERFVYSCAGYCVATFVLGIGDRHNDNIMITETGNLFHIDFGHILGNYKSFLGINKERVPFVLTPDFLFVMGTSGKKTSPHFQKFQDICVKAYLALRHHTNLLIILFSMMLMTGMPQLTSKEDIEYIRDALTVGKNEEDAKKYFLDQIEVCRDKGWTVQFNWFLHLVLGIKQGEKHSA

[11] = system: LO2 cell lines (normal liver cell)
WI38 normal cells [12] = test: cells; conditions: Homo sapiens, WI-38, read-out: IC50 WI38
A549 = test: cells; type: cell-based; conditions: Homo sapiens, A549, read-out: IC50 against cell proliferation, A549
HeLa = test: cells; type: cell-based; conditions: Homo sapiens, HeLa, read-out: IC50 against cell proliferation, HeLa

With `O=[N+]([O-])c1ccc2c(c1)NP(=S)(c1ccccc1)O2` (centres unmarked) [Compound S11, 5-nitro-2-phenyl-3H-benzo [d][1,3,2] oxazaphosphole 2-sulfide] the “H2S release amount (in words)” value [1] was “the highest amount of hydrogen sulfide was released”, the “Toxicity in words, HepG2” value [2] was “low cytotoxicity” and the “Decrease of TNF-α induction level” value [3] was 80%. The IC50 [4] was > 200 µM, the inhibition at 10 µM (PI3Kβ) was 75% and the inhibition at 10 µM (PI3Kα) was 67%. For the same molecule, the IC50 (MCF-7) was 23 ± 3.2 µM, the “Induction level of IL-10 relative to control group” value [5] was “three times that of the control group” and the “HO-1 expression relative to control group” value [6] was “approximately twice the level of the control group”. The inhibition at 100 µM [7] was ~75%, the “Toxicity in words, WI38” value (WI38 normal cells [8]) was “low cytotoxicity” and the “AKT % inhibition at 10 μM” value (AKT) was 61%. The IC50 [9] was > 400 µM, the “Effect on RAW264.7 cell growth” value ([10]; absence of LPS, 10, 50, 100 μM) was “no significant effect on cell growth” and the “Reduction of RAW264.7 cell activity” value ([10]; presence of LPS stimulation, 10, 50, 100 μM) was 11%. For the same molecule, the inhibition at 10 µM (PI3Kγ) was 45%, the “Toxicity in words, LO2” value [11] was “low cytotoxicity” and the IC50 (WI38 normal cells [12]) was > 200 µM. For the same molecule, the IC50 (A549) was 294 ± 16.6 µM and the IC50 (HeLa) was 260 ± 7.6 µM.
